Assay results: US20260285853A1, “COMPOUNDS AND METHODS FOR MODULATING SPLICING” (REMIX THERAPEUTICS INC., priority 2023, published 2026)

What was measured:
Format in all cases: cell-based
MYB mRNA [1] = test: Splicing RT-qPCR assay (THP), Table 2A; settings: Table 2A (THP); for AC50: AJ mRNA increase, read-out: MYB AJ (increase in alternative junction mRNA, AC50); for IC50: CJ mRNA decrease, read-out: MYB CJ (decrease in canonical junction mRNA, IC50)
HTT mRNA [2] = test: Splicing RT-qPCR assay, canonical (CJ) and alternative (AJ) junction mRNA, K562 cells; settings: Homo sapiens, K562.3 cells, 24 hours; for AC50: read-out: HTT AJ (AC50, increase in AJ mRNA); for IC50: read-out: HTT CJ (IC50, decrease in CJ mRNA)
In short: (§1)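 Splicing switches are measured in K562 cells exposed to compound for 24 h (top 10 uM final, 11 points, 3-fold). Lysates go straight into one-step RT-qPCR, and transcript levels are normalized to GAPDH or GUSB and to DMSO before conversion to percentage response using fixed ΔCt assay windows.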

MYB mRNA [3] = test: as above; settings: Homo sapiens, K562.3 cells, 24 hours; for AC50: read-out: MYB AJ (AC50, increase in AJ mRNA); for IC50: read-out: MYB CJ (IC50, decrease in CJ mRNA)
In short: as §1

[4] = tested on: SH-SY5Y (human neuroblastoma) cells; test: Cell viability, Cell Titer Glo 2.0 assay; settings: read-out: Viability SHSY5Y.3 GI50
In short: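 SH-SY5Y neuroblastoma cells are exposed to test compounds for 72 hours at 37 °C and 5% CO2, with final DMSO held at 0.1%. Cell viability is then measured with the CellTiter-Glo 2.0 assay.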

HTT mRNA [5] = test: Splicing RT-qPCR assay (THP), Table 2A; settings: Table 2A (THP); for AC50: AJ mRNA increase, read-out: HTT AJ (increase in alternative junction mRNA, AC50); for IC50: CJ mRNA decrease, read-out: HTT CJ (decrease in canonical junction mRNA, IC50)

Compound | IC50 (MYB mRNA [1]) [nM] | IC50 (HTT mRNA [2]) [nM] | IC50 (MYB mRNA [3]) [nM] | GI50 [4] [nM] | IC50 (HTT mRNA [5]) [nM] | AC50 (MYB mRNA [1]) [nM] | AC50 (HTT mRNA [2]) [nM] | AC50 (MYB mRNA [3]) [nM] | AC50 (HTT mRNA [5]) [nM]
Cc1cn2cc(NC(=O)c3ccc(N4CCC(NC5CC5)CC4)c4cn(C)nc34)nc2c(C)n1 [Compound 297, 4-[4-(cyclopropylamino)-1-piperidyl]-N-(6,8-dimethylimidazo[1,2-a]pyrazin-2-yl)-2-methyl-indazole-7-carboxamide] | 1000 to 10000 | > 10000 | 100 to 1000 | 1000 to 10000 | > 10000 | 100 to 1000 | > 10000 | 100 to 1000 | > 10000
CCN[C@@H]1CCN(c2cc(O)c(C(=O)Nc3cc(F)c4nc(C)cn4c3)c3nn(C)cc23)C1 [Compound 144, 4-[3-(ethylamino)pyrrolidin-1-yl]-N-(8-fluoro-2-methyl-imidazo[1,2-a]pyridin-6-yl)-6-hydroxy-2-methyl-indazole-7-carboxamide] | < 100 | > 10000 | < 100 | 100 to 1000 | > 10000 | < 100 | > 10000 | < 100 | > 10000
CN[C@H]1CCN(c2c(O)cc(C(=O)Nc3cc(F)c4nc(C)cn4c3)c3nn(C)cc23)C1 [Compound 149, N-(8-fluoro-2-methyl-imidazo[1,2-a]pyridin-6-yl)-5-hydroxy-2-methyl-4-[(3S)-3-(methylamino)pyrrolidin-1-yl]-indazole-7-carboxamide] | 1000 to 10000 | 1000 to 10000 | 1000 to 10000 | 1000 to 10000 | > 10000 | > 10000 | > 10000 | 1000 to 10000 | > 10000
Cc1cn2cc(NC(=O)c3ccc(C4CCC(NC5CC5)CC4)c4cn(C)nc34)cc(F)c2n1 (stereo not drawn) [Compound 192, 4-[4-(cyclopropylamino)cyclohexyl]-N-(8-fluoro-2-methyl-imidazo[1,2-a]pyridin-6-yl)-2-methyl-indazole-7-carboxamide] | 100 to 1000 | 100 to 1000 | 100 to 1000 | 100 to 1000 | 1000 to 10000 | 100 to 1000 | 1000 to 10000 | 100 to 1000 | 1000 to 10000
Cc1cn2cc(NS(=O)(=O)c3ccc(N4C[C@@H](C)N[C@@H](C)C4)c4cn(C)nc34)cc(F)c2n1 [Compound 279] | > 10000 | > 10000 | > 10000 | > 10000 | > 10000 | > 10000 | > 10000 | > 10000 | > 10000
CN[C@@H]1CCN(c2ccc(C(=O)Nc3cc(F)c4nc(C)cn4c3)c3nn(C)cc23)[C@@H]1C (single isomer, unassigned) [Compound 153] | < 100 | 100 to 1000 | < 100 | 100 to 1000 | 100 to 1000 | < 100 | 1000 to 10000 | < 100 | 100 to 1000
Cc1cn2cc(NC(=O)c3ccc(N4CCNCC4=O)c4cn(C)nc34)cc(F)c2n1 [Compound 251, N-(8-fluoro-2-methylimidazo[1,2-a]-pyridin-6-yl)-2-methyl-4-(2-oxopiperazin-1-yl)-2H-indazole-7-carboxamide 2,2,2-trifluoroacetate] | > 10000 | > 10000 | > 10000 | > 10000 | > 10000 | > 10000 | > 10000 | > 10000 | > 10000

The next lines start with results.

IC50 (MYB mRNA [1]) [nM] | IC50 (HTT mRNA [2]) [nM] | IC50 (MYB mRNA [3]) [nM] | GI50 [4] [nM] | IC50 (HTT mRNA [5]) [nM] | Compound | AC50 (MYB mRNA [1]) [nM] | AC50 (HTT mRNA [2]) [nM] | AC50 (MYB mRNA [3]) [nM] | AC50 (HTT mRNA [5]) [nM]
100 to 1000 | 1000 to 10000 | 100 to 1000 | 1000 to 10000 | > 10000 | COCC1(N[C@@H]2CCN(c3ccc(C(=O)Nc4cc(F)c5nc(C)cn5c4)c4nn(C)cc34)C2)CC1 [Compound 119, (R)—N-(8-fluoro-2-methylimidazo[1,2-a]pyridin-6-yl)-4-(3-((1-(methoxymethyl)cyclopropyl)amino)-pyrrolidin-1-yl)-2-methyl-2H-indazole-7-carboxamide] | 100 to 1000 | > 10000 | 100 to 1000 | > 10000
< 100 | 100 to 1000 | < 100 | 100 to 1000 | 100 to 1000 | Cc1cn2cc(NC(=O)c3ccc(N4CCC(NC5CC5C)CC4)c4cn(C)nc34)cc(F)c2n1 (stereo not drawn) [Compound 204, N-(8-fluoro-2-methyl-imidazo[1,2-a]pyridin-6-yl)-2-methyl-4-[4-[(2-methyl-cyclopropyl)amino]-1-piperidyl] indazole-7-carboxamide] | < 100 | 100 to 1000 | < 100 | 100 to 1000
1000 to 10000 | 1000 to 10000 | > 10000 | 100 to 1000 | > 10000 | CCNC1CCN(c2ccc(C(=O)Nc3cc(F)c4nc(C(C)C)cn4c3)c3nn(C)cc23)CC1 [Compound 177, 4-[4-(ethylamino)-1-piperidyl]-N-(8-fluoro-2-isopropyl-imidazo[1,2-a]pyridin-6-yl)-2-methyl-indazole-7-carboxamide] | > 10000 | > 10000 | > 10000 | > 10000
